Measured values: US9822131B2, “Certain chemical entities, compositions and methods” (Intellikine LLC, priority 2008, dated 2017)
Read-outs that look alike come from different tables or passages of the source.

Experiments:
PI3K δ = molecular target: T1, PI3K δ (Homo sapiens, UniProt O00329); experiment: PI3K δ in vitro kinase inhibition assay; format: biochemical
T1 construct: purchased Upstate
Experimental: (§1) IC50 values are measured using either a standard TLC assay for lipid kinase activity (described below) or a high-throughput membrane capture assay. Kinase reactions are performed by preparing a reaction mixture containing kinase, inhibitor (2% DMSO final concentration), buffer (25 mM HEPES, pH 7.4, 10 mM MgCl2), and freshly sonicated phosphatidylinositol (100 μg/ml). Reactions are initiated by the addition of ATP containing 10 μCi of γ-32P-ATP to a final concentration 10 or 100 μM and allowed to proceed for 5 minutes at room temperature. For TLC analysis, reactions are then terminated by the addition of 105 μl 1N HCl followed by 160 μl CHCl3:MeOH (1:1). The biphasic mixture is vortexed, briefly centrifuged, and the organic phase is transferred to a new tube using a gel loading pipette tip precoated with CHCl3. This extract is spotted on TLC plates and developed for 3-4 hours in a 65:35 solution of n-propanol:1M acetic acid. The TLC plates are then dried, exposed to a phosphorimager screen (Storm, Amersham), and quantitated.
(§2) Briefly, the assay is a time resolved FRET assay that indirectly measures PIP3 product formed by the activity of a PI3-K. The kinase reaction is performed in a microtiter plate (e.g., a 384 well microtiter plate). The total reaction volume is approximately 20 ul per well. In the first step, each well receives 2 ul of test compound in 20% dimethylsulphoxide resulting in a 2% DMSO final concentration. Next, approximately 14.5 ul of a kinase/PIP2 mixture (diluted in 1× reaction buffer) is added per well for a final concentration of 0.25-0.3 ug/ml kinase and 10 uM PIP2. […] To start the reaction, 3.5 ul of ATP (diluted in 1× reaction buffer) is added per well for a final concentration of 10 uM ATP. The plate is sealed and incubated for 1 hour at room temperature. The reaction is stopped by adding 5 ul of Stop Solution per well and then 5 μl of Detection Mix is added per well. The plate is sealed, incubated for 1 hour at room temperature, and then read on an appropriate plate reader. Data is analyzed and IC50s are generated using GraphPad Prism 5.

PI3K γ = molecular target: T2, PI3K γ (Homo sapiens, UniProt P48736); experiment: PI3K γ in vitro kinase inhibition assay; format: biochemical
T2 construct: purchased Sigma
T2 sequence (P48736 whole entry): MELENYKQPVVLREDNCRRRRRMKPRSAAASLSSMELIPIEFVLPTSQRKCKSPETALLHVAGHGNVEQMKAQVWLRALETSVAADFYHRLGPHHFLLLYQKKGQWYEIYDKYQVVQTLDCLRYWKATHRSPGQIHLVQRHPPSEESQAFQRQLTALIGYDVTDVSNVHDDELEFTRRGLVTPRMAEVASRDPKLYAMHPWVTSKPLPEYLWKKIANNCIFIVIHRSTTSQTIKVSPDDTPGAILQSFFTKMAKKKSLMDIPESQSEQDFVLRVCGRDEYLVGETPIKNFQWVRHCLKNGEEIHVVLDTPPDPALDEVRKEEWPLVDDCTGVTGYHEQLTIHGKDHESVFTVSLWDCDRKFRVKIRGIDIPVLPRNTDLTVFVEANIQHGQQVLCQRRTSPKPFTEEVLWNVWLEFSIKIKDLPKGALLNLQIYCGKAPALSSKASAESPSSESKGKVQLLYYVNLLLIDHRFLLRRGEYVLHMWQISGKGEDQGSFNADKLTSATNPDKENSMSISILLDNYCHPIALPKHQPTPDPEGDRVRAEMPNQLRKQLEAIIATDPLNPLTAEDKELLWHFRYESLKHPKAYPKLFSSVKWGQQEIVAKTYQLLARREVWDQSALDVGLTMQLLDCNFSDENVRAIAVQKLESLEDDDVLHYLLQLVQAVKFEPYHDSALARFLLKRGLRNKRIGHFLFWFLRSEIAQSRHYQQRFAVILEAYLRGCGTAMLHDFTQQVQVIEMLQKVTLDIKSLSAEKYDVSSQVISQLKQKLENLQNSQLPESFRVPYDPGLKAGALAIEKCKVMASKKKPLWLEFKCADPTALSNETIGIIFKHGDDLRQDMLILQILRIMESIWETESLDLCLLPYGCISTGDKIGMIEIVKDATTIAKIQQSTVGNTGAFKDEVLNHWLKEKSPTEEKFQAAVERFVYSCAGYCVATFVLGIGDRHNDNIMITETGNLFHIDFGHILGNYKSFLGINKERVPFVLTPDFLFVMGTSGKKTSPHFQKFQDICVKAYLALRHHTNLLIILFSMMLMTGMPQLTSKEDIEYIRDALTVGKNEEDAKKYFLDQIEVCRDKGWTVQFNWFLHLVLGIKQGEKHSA
Experimental: as §1, §2

Balb/c splenic B cells = experiment: B cell activation and proliferation assay (Alamar Blue); format: cell-based; details: Mus musculus
Experimental: The assay is performed in a 96 well microtiter plate using Alamar Blue reduction. Balb/c splenic B cells are purified over a Ficoll-Paque™ PLUS gradient followed by magnetic cell separation using a MACS B cell Isolation Kit (Miletenyi). Cells are plated in 90 ul at 50,000 cells/well in B Cell Media (RPMI+10% FBS+Penn/Strep+50 uM bME+5 mM HEPES). A compound disclosed herein is diluted in B Cell Media and added in a 10 ul volume. Plates are incubated for 30 min at 37 C and 5% CO2 (0.2% DMSO final concentration). A 50 ul B cell stimulation cocktail is then added containing either 10 ug/ml LPS or 5 ug/ml F(ab′)2 Donkey anti-mouse IgM plus 2 ng/ml recombinant mouse IL4 in B Cell Media. […] A volume of 15 uL of Alamar Blue reagent is added to each well and plates are incubated for 5 hours at 37 C and 5% CO2. Alamar Blue fluoresce is read at 560Ex/590Em, and IC50 or EC50 values are calculated using GraphPad Prism 5.

PI3K α = molecular target: T3, PI3K α (Homo sapiens, UniProt P42336); experiment: PI3K α in vitro kinase inhibition assay; format: biochemical
T3 construct: purchased Upstate
T3 sequence (P42336 whole entry): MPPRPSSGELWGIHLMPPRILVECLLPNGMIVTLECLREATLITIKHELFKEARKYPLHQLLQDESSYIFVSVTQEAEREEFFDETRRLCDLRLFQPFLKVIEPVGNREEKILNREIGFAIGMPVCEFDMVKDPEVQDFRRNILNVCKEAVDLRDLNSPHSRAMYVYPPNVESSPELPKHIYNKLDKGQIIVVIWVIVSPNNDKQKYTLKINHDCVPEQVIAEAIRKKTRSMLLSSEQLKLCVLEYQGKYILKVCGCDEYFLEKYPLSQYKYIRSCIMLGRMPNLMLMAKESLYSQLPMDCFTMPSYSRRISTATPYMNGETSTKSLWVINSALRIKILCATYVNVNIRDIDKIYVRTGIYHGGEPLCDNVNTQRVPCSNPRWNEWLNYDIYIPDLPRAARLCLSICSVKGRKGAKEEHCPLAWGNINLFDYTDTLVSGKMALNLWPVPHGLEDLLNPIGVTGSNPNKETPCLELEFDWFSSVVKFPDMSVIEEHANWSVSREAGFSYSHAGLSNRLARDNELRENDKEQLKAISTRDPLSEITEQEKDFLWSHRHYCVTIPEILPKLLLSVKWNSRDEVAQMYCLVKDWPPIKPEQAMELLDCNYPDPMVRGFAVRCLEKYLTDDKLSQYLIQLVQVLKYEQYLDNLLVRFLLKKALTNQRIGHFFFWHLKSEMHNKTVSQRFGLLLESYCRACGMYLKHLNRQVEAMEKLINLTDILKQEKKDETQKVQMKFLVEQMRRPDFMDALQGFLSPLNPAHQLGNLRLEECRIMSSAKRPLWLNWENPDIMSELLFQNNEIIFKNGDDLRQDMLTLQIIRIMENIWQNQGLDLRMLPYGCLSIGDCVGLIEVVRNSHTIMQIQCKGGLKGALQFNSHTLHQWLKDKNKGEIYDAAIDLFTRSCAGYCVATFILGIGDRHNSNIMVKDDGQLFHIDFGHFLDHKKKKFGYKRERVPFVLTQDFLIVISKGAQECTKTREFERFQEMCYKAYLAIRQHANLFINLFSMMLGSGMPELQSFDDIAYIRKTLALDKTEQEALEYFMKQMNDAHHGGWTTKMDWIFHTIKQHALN
T3 sequence (P27986 whole entry partner): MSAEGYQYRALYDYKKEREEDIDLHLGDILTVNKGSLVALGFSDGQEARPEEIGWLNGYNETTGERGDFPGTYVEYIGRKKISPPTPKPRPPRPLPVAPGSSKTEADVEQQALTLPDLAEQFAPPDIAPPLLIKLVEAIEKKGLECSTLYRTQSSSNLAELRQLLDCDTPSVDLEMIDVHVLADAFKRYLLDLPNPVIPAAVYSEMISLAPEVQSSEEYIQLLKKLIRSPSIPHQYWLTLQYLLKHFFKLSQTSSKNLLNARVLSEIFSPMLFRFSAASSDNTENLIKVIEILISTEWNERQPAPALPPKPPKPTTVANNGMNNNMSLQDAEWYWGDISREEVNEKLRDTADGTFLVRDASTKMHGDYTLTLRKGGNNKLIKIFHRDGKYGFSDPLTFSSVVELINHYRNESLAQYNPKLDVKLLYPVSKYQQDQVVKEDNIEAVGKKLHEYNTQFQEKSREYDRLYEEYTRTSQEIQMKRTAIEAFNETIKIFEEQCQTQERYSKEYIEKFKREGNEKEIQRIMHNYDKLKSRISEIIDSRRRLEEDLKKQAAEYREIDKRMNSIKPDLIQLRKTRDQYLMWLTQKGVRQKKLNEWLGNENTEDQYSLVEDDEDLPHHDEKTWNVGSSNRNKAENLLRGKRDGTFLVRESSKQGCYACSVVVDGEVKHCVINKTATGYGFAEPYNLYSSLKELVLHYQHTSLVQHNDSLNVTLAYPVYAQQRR
Experimental: as §1, §2

PI3K β = molecular target: T4, PI3K β (Homo sapiens, UniProt P42338); experiment: PI3K β in vitro kinase inhibition assay; format: biochemical
T4 construct: purchased Upstate
T4 sequence (P42338 whole entry): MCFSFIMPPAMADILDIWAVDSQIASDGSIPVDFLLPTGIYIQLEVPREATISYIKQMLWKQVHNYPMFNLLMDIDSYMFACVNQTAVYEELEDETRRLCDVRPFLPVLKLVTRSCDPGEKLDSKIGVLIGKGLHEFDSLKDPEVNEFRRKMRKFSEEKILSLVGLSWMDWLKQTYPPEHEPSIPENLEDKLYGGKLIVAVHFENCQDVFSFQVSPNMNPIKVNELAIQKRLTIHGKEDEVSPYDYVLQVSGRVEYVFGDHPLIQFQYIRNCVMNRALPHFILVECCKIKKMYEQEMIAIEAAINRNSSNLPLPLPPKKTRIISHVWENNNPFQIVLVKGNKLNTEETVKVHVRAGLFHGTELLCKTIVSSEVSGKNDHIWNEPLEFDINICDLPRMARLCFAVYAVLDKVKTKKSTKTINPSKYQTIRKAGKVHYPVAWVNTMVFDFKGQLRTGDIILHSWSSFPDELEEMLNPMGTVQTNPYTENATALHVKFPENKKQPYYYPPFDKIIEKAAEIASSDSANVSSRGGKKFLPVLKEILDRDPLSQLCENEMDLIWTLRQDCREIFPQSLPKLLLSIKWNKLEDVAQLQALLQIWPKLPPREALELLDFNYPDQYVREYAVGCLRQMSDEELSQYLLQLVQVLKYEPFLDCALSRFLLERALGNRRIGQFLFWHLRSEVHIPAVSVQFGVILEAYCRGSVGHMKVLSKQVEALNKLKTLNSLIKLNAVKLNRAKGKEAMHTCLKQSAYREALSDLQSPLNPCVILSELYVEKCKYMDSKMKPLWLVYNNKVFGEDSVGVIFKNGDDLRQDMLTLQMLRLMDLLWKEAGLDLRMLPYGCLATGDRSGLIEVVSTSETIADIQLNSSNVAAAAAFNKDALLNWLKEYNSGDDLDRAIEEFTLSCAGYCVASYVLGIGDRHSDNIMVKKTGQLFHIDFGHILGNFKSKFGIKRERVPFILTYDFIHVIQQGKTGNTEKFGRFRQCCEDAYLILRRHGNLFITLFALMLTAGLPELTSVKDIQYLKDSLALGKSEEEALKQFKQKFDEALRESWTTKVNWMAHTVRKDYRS
T4 sequence (P27986 whole entry partner): as the sequence (P27986 whole entry partner) above
Experimental: as §1, §2

[1] = read-out: B cell proliferation EC50

T1 sequence (O00329 whole entry): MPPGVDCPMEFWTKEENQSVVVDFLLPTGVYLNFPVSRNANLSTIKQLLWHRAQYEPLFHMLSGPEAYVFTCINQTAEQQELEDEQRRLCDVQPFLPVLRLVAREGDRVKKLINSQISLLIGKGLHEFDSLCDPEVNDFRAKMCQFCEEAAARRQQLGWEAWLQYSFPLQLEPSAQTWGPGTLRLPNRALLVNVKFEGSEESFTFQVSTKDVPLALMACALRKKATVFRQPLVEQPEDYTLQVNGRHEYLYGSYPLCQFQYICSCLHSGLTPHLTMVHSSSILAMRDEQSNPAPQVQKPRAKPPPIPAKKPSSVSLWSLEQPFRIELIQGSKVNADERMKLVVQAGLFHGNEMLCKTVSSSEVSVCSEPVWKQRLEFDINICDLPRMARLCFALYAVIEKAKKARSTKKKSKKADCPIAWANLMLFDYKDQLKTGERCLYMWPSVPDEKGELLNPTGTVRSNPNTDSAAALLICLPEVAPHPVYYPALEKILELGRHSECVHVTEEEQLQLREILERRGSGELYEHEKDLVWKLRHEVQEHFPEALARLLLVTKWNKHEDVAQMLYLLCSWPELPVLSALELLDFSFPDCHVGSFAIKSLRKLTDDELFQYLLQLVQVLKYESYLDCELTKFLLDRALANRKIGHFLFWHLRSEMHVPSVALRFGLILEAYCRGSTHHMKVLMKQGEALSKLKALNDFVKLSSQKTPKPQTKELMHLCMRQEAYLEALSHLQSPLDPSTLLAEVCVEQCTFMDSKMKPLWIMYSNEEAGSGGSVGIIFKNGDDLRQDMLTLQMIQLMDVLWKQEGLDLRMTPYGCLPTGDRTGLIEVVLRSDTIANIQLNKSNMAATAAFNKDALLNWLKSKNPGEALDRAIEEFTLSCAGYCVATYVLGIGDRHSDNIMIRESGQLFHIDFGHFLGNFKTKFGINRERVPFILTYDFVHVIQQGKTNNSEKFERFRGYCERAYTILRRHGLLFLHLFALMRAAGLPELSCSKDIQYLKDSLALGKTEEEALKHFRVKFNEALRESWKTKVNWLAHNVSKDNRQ
T1 sequence (P27986 whole entry partner): as the sequence (P27986 whole entry partner) above

Row | IC50 (PI3K δ) [µM] | IC50 (PI3K γ) [µM] | IC50 (PI3K α) [µM] | IC50 (PI3K β) [µM] | SMILES | EC50 (Balb/c splenic B cells; [1]) [nM] | EC50 (Balb/c splenic B cells; read-out: B cell proliferation EC50 (nM)) [nM]
1 | < 0.1 | < 0.1 | > 10 | > 10 | Cc1ccccc1-n1c(Cn2nc(C)c3c(N)ncnc32)nc2scc(C)c2c1=O [Compound 246] | < 1000 | –
2 | < 0.1 | < 1 | > 10 | > 10 | Cc1ccccc1-n1c(Cn2nc(Cl)c3c(N)ncnc32)nc2scc(C)c2c1=O [Compound 249] | < 100 | –
3 | < 0.1 | < 1 | > 10 | > 10 | Cc1ccccc1-n1c(Cn2nc(Br)c3c(N)ncnc32)nc2scc(C)c2c1=O [Compound 250] | < 100 | –
4 | < 0.1 | < 0.1 | > 10 | > 10 | Cc1csc2nc(Cn3nc(-c4cc(O)cc(F)c4)c4c(N)ncnc43)n(-c3ccccc3F)c(=O)c12 [Compound 258] | < 100 | –
5 | < 0.1 | < 1 | > 10 | > 10 | Cc1csc2nc(Cn3nc(-c4ccc(F)c(O)c4)c4c(N)ncnc43)n(-c3ccccc3F)c(=O)c12 [Compound 259] | < 100 | –
6 | < 0.1 | < 0.1 | > 10 | > 10 | Cc1csc2nc(Cn3nc(C#C[C@@H](C)O)c4c(N)ncnc43)n(-c3ccccc3F)c(=O)c12 [Compound 261] | < 1000 | –
7 | < 10 | < 10 | > 10 | > 10 | Cc1csc2nc(Cn3nc(-c4ccc(O)cc4)c4c(N)ncnc43)n(-c3ccccc3F)c(=O)c12 [Compound 263] | < 10000 | –
8 | < 0.1 | < 0.1 | > 10 | < 10 | Cc1ccccc1-n1c(Cn2nc(-c3ccc(O)c(Cl)c3)c3c(N)ncnc32)nc2scc(C)c2c1=O [Compound 269] | – | –
9 | < 1 | < 10 | > 10 | > 10 | Cc1cccnc1-n1c(Cn2nc(Cl)c3c(N)ncnc32)nc2scc(C)c2c1=O [Compound 270] | – | –
10 | < 0.1 | < 1 | > 10 | > 10 | COc1ccccc1-n1c(Cn2nc(Br)c3c(N)ncnc32)nc2scc(C)c2c1=O [Compound 274] | – | –
11 | < 0.1 | < 1 | > 10 | < 10 | COc1ccccc1-n1c(Cn2nc(-c3cccc(O)c3)c3c(N)ncnc32)nc2scc(C)c2c1=O [Compound 275] | < 100 | –
12 | < 0.1 | < 1 | > 10 | > 10 | Cc1csc2nc(Cn3nc(Cl)c4c(N)ncnc43)n(-c3ccccc3C(F)(F)F)c(=O)c12 [Compound 280] | < 100 | –
13 | < 0.1 | < 0.1 | > 10 | < 10 | Cc1csc2nc(Cn3nc(-c4cccc(O)c4)c4c(N)ncnc43)n(-c3ccccc3C(F)(F)F)c(=O)c12 [Compound 281] | < 100 | –
14 | < 0.1 | < 10 | > 10 | < 10 | Cc1csc2nc(Cn3nc(C#C[C@@H](C)O)c4c(N)ncnc43)n(-c3ncccc3C(F)(F)F)c(=O)c12 [Compound 282] | < 100 | –
15 | < 10 | > 10 | > 10 | > 10 | Cc1cc2c(=O)n(-c3ccccc3C)c(Cn3nc(Br)c4c(N)ncnc43)nc2s1 [Compound 285] | – | –
16 | < 10 | > 10 | > 10 | > 10 | Cc1cc2c(=O)n(-c3ccccc3C)c(Cn3nc(-c4cccc(O)c4)c4c(N)ncnc43)nc2s1 [Compound 294] | – | –
17 | < 1 | > 10 | > 10 | > 10 | Cc1ccccc1-n1c(Cn2nc(-c3cccc(O)c3)c3c(N)ncnc32)nc2sc(C)c(C)c2c1=O [Compound 299] | – | –
18 | < 0.1 | > 10 | > 10 | > 10 | Cc1ccccc1-n1c(Cn2nc(Br)c3c(N)ncnc32)nc2sc(C)c(C)c2c1=O [Compound 301] | – | –

More lines, now with the values behind:

Row | SMILES | IC50 (PI3K δ) [µM] | IC50 (PI3K γ) [µM] | IC50 (PI3K α) [µM] | IC50 (PI3K β) [µM] | EC50 (Balb/c splenic B cells; [1]) [nM] | EC50 (Balb/c splenic B cells; read-out: B cell proliferation EC50 (nM)) [nM]
19 | Cc1cccnc1-n1c(Cn2nc(I)c3c(N)ncnc32)cc2cccc(C)c2c1=O [Compound 92] | < 10 | < 10 | – | – | – | –
20 | CC(=O)Nc1nc2ccc(-c3nn(Cc4cc5cccc(C)c5c(=O)n4C4CCC4)c4ncnc(N)c34)cc2s1 [Compound 159] | – | – | – | – | < 100 | –
21 | Cc1ccccc1-n1c(Cn2nc(-c3cn[nH]c3)c3c(N)ncnc32)cc2cccc(C)c2c1=O [Compound 160] | – | – | – | – | < 100 | –
22 | Cc1cccc2cc(Cn3nc(-c4cn[nH]c4)c4c(N)ncnc43)n(-c3ccccc3F)c(=O)c12 [Compound 161] | – | – | – | – | < 1000 | –
23 | Cc1ccccc1-n1c(Cn2nc(-c3cnn(CCO)c3)c3c(N)ncnc32)cc2cccc(C)c2c1=O [Compound 163] | – | – | – | – | < 1000 | –
24 | Cc1cccc2cc(Cn3nc(-c4cn[nH]c4)c4c(N)ncnc43)n(-c3cccc(F)c3)c(=O)c12 [Compound 166] | – | – | – | – | < 100 | –
25 | Cc1cccc2cc(C(C)Nc3ncnc4[nH]cnc34)n(-c3ccccc3F)c(=O)c12 (centres unmarked) [Compound 167] | – | – | – | – | < 100 | –
26 | Cc1cccc2cc(Cn3nc(C#N)c4c(N)ncnc43)n(-c3ccccc3F)c(=O)c12 [Compound 169] | – | – | – | – | – | < 1000
27 | Cc1ccccc1-n1c(Cn2nc(C#N)c3c(N)ncnc32)cc2cccc(C)c2c1=O [Compound 170] | – | – | – | – | < 100 | –
28 | Cc1cccc2cc(Cn3nc(/C=C4/SC(=O)NC4=O)c4c(N)ncnc43)n(-c3ccccc3F)c(=O)c12 [Compound 171] | – | – | – | – | < 100 | –
29 | Cc1ccccc1-n1c(Cn2nc(/C=C3/SC(=O)NC3=O)c3c(N)ncnc32)cc2cccc(C)c2c1=O [Compound 173] | – | – | – | – | < 100 | –
30 | Cc1ccccc1-n1c(Cn2nc(/C=C/C(N)=O)c3c(N)ncnc32)cc2cccc(C)c2c1=O [Compound 174] | – | – | – | – | < 100 | –
31 | CCn1c(Cn2nc(-c3ccc4nc(NC(C)=O)sc4c3)c3c(N)ncnc32)cc2cccc(C)c2c1=O [Compound 176] | – | – | – | – | < 100 | –
32 | CC(=O)Nc1nc2ccc(-c3nn(Cc4cc5cccc(C)c5c(=O)n4-c4ccccc4)c4ncnc(N)c34)cc2s1 [Compound 177] | – | – | – | – | < 100 | –
33 | CC(=O)Nc1nc2ccc(-c3nn(Cc4cc5cccc(C)c5c(=O)n4-c4cccc(F)c4)c4ncnc(N)c34)cc2s1 [Compound 178] | – | – | – | – | < 100 | –
34 | C=Cc1nn(Cc2cc3cccc(C)c3c(=O)n2-c2ccccc2C)c2ncnc(N)c12 [Compound 180] | – | – | – | – | < 100 | –

Row | SMILES | IC50 (PI3K δ) [µM] | IC50 (PI3K γ) [µM] | IC50 (PI3K α) [µM] | IC50 (PI3K β) [µM] | EC50 (Balb/c splenic B cells; [1]) [nM] | EC50 (Balb/c splenic B cells; read-out: B cell proliferation EC50 (nM)) [nM]
35 | Cc1ccccc1-n1c(Cn2nc(I)c3c(N)ncnc32)nc2nccc(C)c2c1=O [Compound 199] | < 1 | < 10 | > 10 | > 10 | < 100 | –
36 | Cc1ccccc1-n1c(Cn2nc(-c3cc(O)cc(F)c3)c3c(N)ncnc32)nc2nccc(C)c2c1=O [Compound 200] | < 1 | > 10 | > 10 | > 10 | < 10000 | –
37 | Cc1ccccc1-n1c(Cn2nc(C#CC3CC3)c3c(N)ncnc32)nc2nccc(C)c2c1=O [Compound 202] | < 1 | > 10 | > 10 | > 10 | < 10000 | –
38 | Cc1ccccc1-n1c(Cn2nc(Cl)c3c(N)ncnc32)nc2nccc(C)c2c1=O [Compound 203] | < 0.1 | < 10 | > 10 | > 10 | < 1000 | –
39 | Cc1ccccc1-n1c(Cn2nc(Br)c3c(N)ncnc32)nc2nccc(C)c2c1=O [Compound 204] | < 0.1 | > 10 | > 10 | > 10 | < 1000 | –
40 | Cc1ccnc2nc(Cn3nc(C#CC4CC4)c4c(N)ncnc43)n(-c3ccccc3Cl)c(=O)c12 [Compound 208] | < 10 | > 10 | > 10 | > 10 | < 10000 | –
41 | Cc1nn(Cc2nc3nccc(C)c3c(=O)n2-c2ccccc2F)c2ncnc(N)c12 [Compound 210] | < 10 | > 10 | > 10 | > 10 | < 10000 | –
42 | Cc1ccccc1-n1c(Cn2nc(-c3cccc(O)c3)c3c(N)ncnc32)nc2c(C)nn(C)c2c1=O [Compound 217] | < 10 | > 10 | > 10 | > 10 | < 10000 | –
43 | Cc1ccccc1N1C(=O)C2C(C=NN2C)N=C1Cn1nc(-c2cc(O)cc(F)c2)c2c(N)ncnc21 (centres unmarked) [Compound 221] | < 0.1 | > 10 | > 10 | > 10 | < 1000 | –
44 | Cc1ccccc1-n1c(Cn2nc(C#CC3CC3)c3c(N)ncnc32)cc2nccc(C)c2c1=O [Compound 225] | < 1 | > 10 | > 10 | > 10 | < 1000 | –
45 | Cc1ccccc1-n1c(Cn2nc(-c3ccc(O)c(F)c3)c3c(N)ncnc32)cc2nccc(C)c2c1=O [Compound 226] | < 0.1 | < 1 | > 10 | > 10 | < 1000 | –
46 | Cc1ccnc2cc(Cn3nc(-c4cc(O)cc(F)c4)c4c(N)ncnc43)n(-c3ccccc3F)c(=O)c12 [Compound 231] | < 0.1 | < 1 | > 10 | > 10 | < 100 | –
47 | Cc1ccccc1-n1c(Cn2nc(Br)c3c(N)ncnc32)nc2snc(C)c2c1=O [Compound 239] | < 1 | > 10 | > 10 | > 10 | – | –
48 | Cc1ccccc1-n1c(Cn2nc(-c3cccc(O)c3)c3c(N)ncnc32)nc2snc(C)c2c1=O [Compound 241] | < 1 | < 10 | > 10 | > 10 | – | –
49 | Cc1ccccc1-n1c(Cn2nc(I)c3c(N)ncnc32)nc2scc(C)c2c1=O [Compound 242] | < 0.1 | < 1 | > 10 | > 10 | < 100 | –
